Experimental data published in patent publication US9221838B2, “Inhibitors of AKT activity” (ALMAC DISCOVERY LIMITED, priority 2009, dated 2015).
pIC50: −log10 of the molar value.

How the values were obtained:
AKT1 = molecular target: T1, AKT1 (Homo sapiens, UniProt P31749); experiment: AKT Kinase Assay (IMAP fluorescent polarisation) vs AKT1; type: biochemical
T1 construct: purchased SignalChem
Outline: (§1)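 Phosphorylation of FAM-Crosstide detected by IMAP binding and fluorescence polarisation (485/528 nm), with IC50 fitted from % inhibition versus vehicle. Compound was incubated 45 min with enzyme, then reacted 1 h at room temperature with ATP and peptide in Tris/MgCl2/DTT buffer. Dose response had fourteen half-log points.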

[1] = test system: PC3 and/or LnCaP cell lines; experiment: in vitro cell proliferation assay (Cell Titre Glo); type: cell-based; conditions: Homo sapiens, read-out: inhibition of proliferation, IC50
Experimental: Testing of the compounds was also performed using in vitro cell proliferation assays:
Cell Titre Glo (Promega) is a highly sensitive homogeneous reagent used to determine the viability of cells. The reagent uses a stable form of luciferase to measure ATP as an output of viability. The luminescent values generated in the assay are directly proportional to the number of viable cells in your assay.
The following materials were used: White, clear bottomed 96 well assay plates (Costar); Cell titre Glo reagents; LnCaP (ECACC) cells grown in RPMI medium (Invitrogen) supplemented with 10 mM HEPES (Invitrogen), 1 mM Sodium pyruvate (Invitrogen), 2 mM L-Glutamine (Invitrogen) and 10% Foetal calf serum (Invitrogen); PC3 (ECACC) cells grown in RPMI medium supplemented with 10% Foetal calf serum (Invitrogen); Trypsin (Invitrogen); PBS (Invitrogen); Biotek Synergy 4 Hybrid Plate reader; 96 well plate shaker (Stuart SSL5); Eppendorf 5414 desk-top centrifuge; Beckman Coulter cell counter Z1 single threshold system.
Prostate cell lines, PC3 and LnCaP, were washed, detached and re-suspended in their respective fresh media. The cells were pelleted by centrifugation (Eppendorf 5414) and spent supernatant discarded. The cells were re-suspended by vortex mixing, counted and seeded into clear bottom white 96 well plates at a density of 5000 cells per well. The cells were incubated (Sanyo) overnight at 37° C. ([…]), and next day treated with increasing concentrations of test compound formulated in fresh medium. The plates were returned to the incubator for 72 hours. […]
The cell viability post compound treatment was determined by the luminescent intensity emitted from the drug treated wells in the plate. In brief, the assay plate was placed in the Biotex Synergy 4 Hybrid plate reader and the luminescence read in each well. The compound treated wells were compared to vehicle treated wells and the % inhibition of cell viability calculated.
The data was analysed using GraphPad Prism, with IC50 values generated using non-linear regression of the data set.

AKT3 = molecular target: T2, AKT3 (Homo sapiens, UniProt Q9Y243); experiment: AKT Kinase Assay (IMAP fluorescent polarisation) vs AKT3; type: biochemical
T2 construct: purchased SignalChem
T2 sequence (Q9Y243 whole entry): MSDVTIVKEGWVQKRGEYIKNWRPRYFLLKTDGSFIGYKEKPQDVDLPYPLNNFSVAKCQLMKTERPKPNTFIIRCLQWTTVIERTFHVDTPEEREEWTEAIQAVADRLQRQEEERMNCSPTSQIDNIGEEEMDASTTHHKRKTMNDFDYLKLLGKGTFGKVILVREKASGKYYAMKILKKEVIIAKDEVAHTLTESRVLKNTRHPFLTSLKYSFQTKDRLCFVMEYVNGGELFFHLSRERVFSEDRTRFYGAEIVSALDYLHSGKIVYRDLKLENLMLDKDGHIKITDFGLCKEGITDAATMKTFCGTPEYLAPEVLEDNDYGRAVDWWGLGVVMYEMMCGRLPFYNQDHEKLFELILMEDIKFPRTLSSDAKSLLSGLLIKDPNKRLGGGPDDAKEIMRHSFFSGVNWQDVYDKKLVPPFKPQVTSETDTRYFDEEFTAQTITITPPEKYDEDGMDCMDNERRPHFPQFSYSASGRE
Outline: as §1

AKT2 = molecular target: T3, AKT2 (Homo sapiens, UniProt P31751); experiment: AKT Kinase Assay (IMAP fluorescent polarisation) vs AKT2; type: biochemical
T3 construct: purchased SignalChem
T3 sequence (P31751 whole entry): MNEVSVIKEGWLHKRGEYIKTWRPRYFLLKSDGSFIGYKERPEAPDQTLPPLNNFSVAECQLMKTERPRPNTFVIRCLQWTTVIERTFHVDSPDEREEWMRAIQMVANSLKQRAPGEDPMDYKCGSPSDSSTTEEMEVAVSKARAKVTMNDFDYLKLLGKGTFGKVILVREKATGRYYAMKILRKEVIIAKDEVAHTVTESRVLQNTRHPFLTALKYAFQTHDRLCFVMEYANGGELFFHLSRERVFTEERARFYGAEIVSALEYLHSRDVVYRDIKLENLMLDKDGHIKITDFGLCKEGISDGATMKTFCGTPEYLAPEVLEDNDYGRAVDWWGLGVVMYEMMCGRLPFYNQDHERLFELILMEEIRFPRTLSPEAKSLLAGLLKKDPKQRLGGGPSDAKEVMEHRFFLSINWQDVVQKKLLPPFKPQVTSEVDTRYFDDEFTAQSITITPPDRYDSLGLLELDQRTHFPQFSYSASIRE
Outline: as §1

GSK3β phosphorylation = experiment: phosphorylation status of members of the AKT/PI3K pathway via ELISA; type: cell-based; conditions: measured at 48 h, read-out: inhibition of GSK3β phosphorylation, IC50

T1 sequence (P31749 whole entry): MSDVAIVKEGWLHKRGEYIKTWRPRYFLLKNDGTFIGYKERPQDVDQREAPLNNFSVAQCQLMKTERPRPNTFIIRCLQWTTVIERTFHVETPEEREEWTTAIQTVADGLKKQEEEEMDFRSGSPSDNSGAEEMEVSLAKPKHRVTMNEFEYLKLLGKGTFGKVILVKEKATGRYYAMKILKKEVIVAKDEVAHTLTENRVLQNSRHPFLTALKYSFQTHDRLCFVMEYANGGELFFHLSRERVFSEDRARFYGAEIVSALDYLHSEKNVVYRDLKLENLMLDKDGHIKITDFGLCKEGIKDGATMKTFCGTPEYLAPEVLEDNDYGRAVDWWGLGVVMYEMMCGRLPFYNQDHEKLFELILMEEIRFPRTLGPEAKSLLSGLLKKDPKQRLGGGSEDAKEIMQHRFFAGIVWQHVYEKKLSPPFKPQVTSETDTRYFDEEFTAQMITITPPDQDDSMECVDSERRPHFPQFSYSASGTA

SMILES | pIC50 (AKT1) | pIC50 [1] | pIC50 (AKT3) | pIC50 (AKT2) | pIC50 (GSK3β phosphorylation)
CN1C(=O)COc2nc(-c3ccc(C4(N)CCC4)cc3)c(-c3ccccc3)cc21 [Example 31, 6-(4-(1-aminocyclobutyl)phenyl)-1-methyl-7-phenyl-1H-pyrido[2,3-b][1,4]oxazin-2(3H)-one] | ≥ 7.00 | > 5.00 | 5.00 to 6.00 | 6.00 to 7.00 | –
NC1(c2ccc(-c3nc4c(cc3-c3ccccc3)-c3n[nH]cc3CC4)cc2)CCC1 [Example 4, 1-(4-(8-phenyl-4,5-dihydro-2H-pyrazolo[3,4-f]quinolin-7-yl)phenyl)cyclobutanamine] | ≥ 7.00 | > 5.00 | < 5.00 | 6.00 to 7.00 | > 7.00
NC1(c2ccc(-c3nc4c(cc3-c3ccccc3)-c3nncn3CC4)cc2)CCC1 [Example 28, 1-(4-(9-phenyl-5,6-dihydro-[1,2,4]triazolo[3,4-f][1,6]naphthyridin-8-yl)phenyl)cyclobutanamine] | 5.00 to 6.00 | > 5.00 | < 5.00 | 6.00 to 7.00 | –
CN1CCOc2nc(-c3ccc(C4(N)CCC4)cc3)c(-c3ccccc3)cc21 [Example 40, 1-(4-(1-methyl-7-phenyl-2,3-dihydro-1H-pyrido[2,3-b][1,4]oxazin-6-yl)phenyl)cyclobutanamine] | 6.00 to 7.00 | – | < 5.00 | 5.00 to 6.00 | –
CC(C)Cc1nnc2n1-c1cc(-c3ccccc3)c(-c3ccc(C4(N)CCC4)cc3)nc1OC2 [Example 115, 1-(4-(1-isobutyl-8-phenyl-4H-pyrido[2,3-b][1,2,4]triazolo[4,3-d][1,4]oxazin-7-yl)phenyl)cyclobutanamine] | 6.00 to 7.00 | – | 5.00 to 6.00 | 6.00 to 7.00 | –
CN1C(=O)COc2nc(-c3ccc(C4(N)CCC4)cc3)c(-c3ccc(F)cc3)cc21 [Example 132, 6-(4-(1-aminocyclobutyl)phenyl)-7-(4-fluorophenyl)-1-methyl-1H-pyrido[2,3-b][1,4]oxazin-2(3H)-one] | 6.00 to 7.00 | – | < 5.00 | 5.00 to 6.00 | –
C=CCN1C(=O)COc2nc(-c3ccc(C4(N)CCC4)cc3)c(-c3ccccc3)cc21 [Example 67, 1-allyl-6-(4-(1-aminocyclobutyl)phenyl)-7-phenyl-1H-pyrido[2,3-b][1,4]oxazin-2(3H)-one] | 6.00 to 7.00 | – | 5.00 to 6.00 | ≥ 7.00 | –
CCc1nnc2n1-c1cc(-c3ccccc3)c(-c3ccc(C4(N)CCC4)cc3)nc1OC2 [Example 47, 1-(4-(1-ethyl-8-phenyl-4H-pyrido[2,3-b][1,2,4]triazolo[4,3-d][1,4]oxazin-7-yl)phenyl)cyclobutanamine] | ≥ 7.00 | – | 5.00 to 6.00 | 6.00 to 7.00 | –
CS(=O)(=O)N1CCOc2nc(-c3ccc(C4(N)CCC4)cc3)c(-c3ccccc3)cc21 [Example 70, 1-(4-(1-(methylsulfonyl)-7-phenyl-2,3-dihydro-1H-pyrido[2,3-b][1,4]oxazin-6-yl)phenyl)cyclobutanamine] | 6.00 to 7.00 | – | < 5.00 | 6.00 to 7.00 | –
CN1C(=O)COc2nc(-c3ccc(C4(N)CCC4)cc3)c(CC3CC3)cc21 [Example 133, 6-(4-(1-aminocyclobutyl)phenyl)-7-(cyclopropylmethyl)-1-methyl-1H-pyrido[2,3-b][1,4]oxazin-2(3H)-one] | 5.00 to 6.00 | – | < 5.00 | < 5.00 | –
C[C@]1(O)C[C@@](N)(c2ccc(-c3nc4c(cc3-c3ccccc3)-n3c(n[nH]c3=O)CO4)cc2)C1 [Example 79, 7-(4-((1r,3r)-1-amino-3-hydroxy-3-methylcyclobutyl)phenyl)-8-phenyl-2,4-dihydro-1H-pyrido[2,3-b][1,2,4]triazolo[4,3-d][1,4]oxazin-1-one] | ≥ 7.00 | – | 5.00 to 6.00 | 6.00 to 7.00 | –
NC1(c2ccc(-c3nc4c(cc3-c3ccccc3)NCCO4)cc2)CCC1 [Example 37, 1-(4-(7-phenyl-2,3-dihydro-1H-pyrido[2,3-b][1,4]oxazin-6-yl)phenyl)cyclobutanamine] | 6.00 to 7.00 | – | < 5.00 | 5.00 to 6.00 | –
Nc1nnc2n1-c1cc(-c3ccccc3)c(-c3ccc(C4(N)CCC4)cc3)nc1OC2 [Example 50, 7-(4-(1-aminocyclobutyl)phenyl)-8-phenyl-4H-pyrido[2,3-b][1,2,4]triazolo[4,3-d][1,4]oxazin-1-amine] | ≥ 7.00 | – | 5.00 to 6.00 | 6.00 to 7.00 | –
CN1CCc2nc(-c3ccc(C4(N)CCC4)cc3)c(-c3ccccc3)cc2C1=O [Example 23, 2-(4-(1-aminocyclobutyl)phenyl)-6-methyl-3-phenyl-7,8-dihydro-1,6-naphthyridin-5(6H)-one] | 6.00 to 7.00 | – | < 5.00 | 5.00 to 6.00 | –
CN1C(=O)CCNc2nc(-c3ccc(C4(N)CCC4)cc3)c(-c3ccccc3)cc21 [Example 114, 7-(4-(1-aminocyclobutyl)phenyl)-1-methyl-8-phenyl-4,5-dihydro-1H-pyrido[2,3-b][1,4]diazepin-2(3H)-one] | 5.00 to 6.00 | – | < 5.00 | 5.00 to 6.00 | –
NCc1ccc(-c2nc3c(cc2-c2ccccc2)N(CC2CC2)C(=O)CO3)cc1 [Example 153, 6-(4-(Aminomethyl)phenyl)-1-(cyclopropylmethyl)-7-phenyl-1H-pyrido[2,3-b][1,4]oxazin-2(3H)-one] | 5.00 to 6.00 | – | < 5.00 | 5.00 to 6.00 | –
NC1(c2ccc(-c3nc4c(cc3-c3ccccc3)-n3c(CF)nnc3CO4)cc2)CCC1 [Example 120, 1-(4-(1-(fluoromethyl)-8-phenyl-4H-pyrido[2,3-b][1,2,4]triazolo[4,3-d][1,4]oxazin-7-yl)phenyl)cyclobutanamine] | ≥ 7.00 | – | 6.00 to 7.00 | 6.00 to 7.00 | –
CN1C(=O)COc2nc(-c3ccc(C4(N)CC4)cc3)c(-c3ccccc3)cc21 [Example 149, 6-(4-(1-aminocyclopropyl)phenyl)-1-methyl-7-phenyl-1H-pyrido[2,3-b][1,4]oxazin-2(3H)-one] | 6.00 to 7.00 | – | < 5.00 | 5.00 to 6.00 | –
NC1(c2ccc(-c3nc4c(cc3-c3ccccc3)N(C3CCC3)C(=O)CO4)cc2)CCC1 [Example 61, 6-(4-(1-aminocyclobutyl)phenyl)-1-cyclobutyl-7-phenyl-1H-pyrido[2,3-b][1,4]oxazin-2(3H)-one] | 5.00 to 6.00 | – | 5.00 to 6.00 | 6.00 to 7.00 | –
Nc1ncc2c(n1)-c1cc(-c3ccccc3)c(-c3ccc(C4(N)CCC4)cc3)nc1CC2 [Example 17] | 6.00 to 7.00 | – | 5.00 to 6.00 | 5.00 to 6.00 | –
